Six compounds from patent publication US20240269298A1, “PHOSPHONYL DERIVATIVE, AND COMPOSITION AND PHARMACEUTICAL APPLICATION THEREOF” (XIZANG HAISCO PHARMACEUTICAL CO., LTD., priority 2021, published 2024) can be followed below.

The test system of the assay is NCI-H1975 (EGFR-L858R-T790M) cells. Briefly: Inhibitory activity on proliferation of NCI-H1975 (EGFR-L858R-T790M) cells (CTG, 72 h). Type of assay: cell-based. Conditions: Homo sapiens. As to the method: NCI-H1975 (EGFR-L858R-T790M) and A431 (EGFR-WT) cells were purchased from ATCC and cultured in an incubator at 37° C. with 5% CO2, and the culture mediums were RPMI1640+10% FBS and DMEM+10% FBS, respectively. On the first day, NCI-H1975 (EGFR-L858R-T790M) and A431 (EGFR-WT) cells in the logarithmic phase were collected, and viable cells were counted using an automatic cell analyzer (countstar). The cell suspensions were adjusted with the culture mediums and plated on a 96-well cell culture plate at 1000 cells/well for NCI-H1975 (EGFR-L858R-T790M) cells and at 3000 cells/well for A431 cells. The next day, the culture mediums were aspirated, and 90 μL of fresh culture mediums and 10 μL of the compounds at different concentrations were added to each well, wherein the final concentration of DMSO in each well was 0.1%. The plate was cultured in the incubator at 37° C. with 5% CO2 for 72 hours. After 72 hours of drug treatment, 50 μL of CTG solution (promega, G7572), which was already pre-melted and equilibrated to room temperature, was added to each well, and the mixtures were uniformly mixed for 2 min using a microplate shaker. The plate was placed at room temperature for 10 min, and then […] signal values were measured using a microplate reader (PHERAstar FSX).
Surviving cells % was calculated based on Vsample/Vvehicle control×100%, wherein Vsample was the readout of the drug-treated group, and Vvehicle control was the average value of the vehicle control group. Using the origin 9.2 software and nonlinear regression model, S-shaped dose-survival curves were plotted, and IC50 values were calculated.

Where [1] appears, read: read-out: IC50 (value in brackets).

Where two headings read alike, the source gives them in different places.

One may read the IC50 as the concentration that gives 50% inhibition.

On to `COc1cc(N2CCC3(CCN(CC4CCN(c5ccc6c(c5)C(=O)N(C5CCC(=O)NC5=O)C6=O)CC4)CC3)CC2)c(C2CC2)cc1Nc1ncc(Br)c(Nc2ccc3nccnc3c2P(C)(C)=O)n1` (stereo not drawn) [Compound 3, 5-(4-((9-(4-((5-bromo-4-((5-(dimethylphosphoryl)quinoxalin-6-yl)amino)pyrimidin-2-yl)amino)-2-cyclopropyl-5-methoxyphenyl)-3,9-diazaspiro[5.5]undecan-3-yl)methyl)piperidin-1-yl)-2-(2,6-dioxopiperidin-3-yl)isoindoline-1,3-dione], for which the IC50 reads like this: (read-out: IC50 (class symbol)) below 100 nM; under setting [1], 75 nM.
The like results for `COc1cc(N2CCC(N3CCN(CC4CCN(c5cc6c(cc5F)C(=O)N(C5CCC(=O)NC5=O)C6=O)CC4)CC3)CC2)c(-c2cnn(C)c2)cc1Nc1ncc(Cl)c(Nc2ccc3nccnc3c2P(C)(C)=O)n1` (stereo not drawn) [Compound 5, 5-(4-((4-(1-(4-((5-chloro-4-((5-(dimethylphosphoryl)quinoxalin-6-yl)amino)pyrimidin-2-yl)amino)-5-methoxy-2-(1-methyl-1H-pyrazol-4-yl)phenyl)piperidin-4-yl)piperazin-1-yl)methyl)piperidin-1-yl)-2-(2,6-dioxopiperidin-3-yl)-6-fluoroisoindoline-1,3-dione] were, in that order, below 100 nM and 52 nM.
The matching figures for `COc1cc(N2CCC(N3CCC(CN4CCN(c5ccc6c(c5)C(=O)N(C5CCC(=O)NC5=O)C6=O)CC4)CC3)CC2)c(-c2cnn(C)c2)cc1Nc1ncc(Cl)c(Nc2ccc3nccnc3c2P(C)(C)=O)n1` (stereo not drawn) [Compound 8, 5-(4-((1′-(4-((5-chloro-4-((5-(dimethylphosphoryl)quinoxalin-6-yl)amino)pyrimidin-2-yl)amino)-5-methoxy-2-(1-methyl-1H-pyrazol-4-yl)phenyl)-[1,4′-bipiperidin]-4-yl)methyl)piperazin-1-yl)-2-(2,6-dioxopiperidin-3-yl)isoindoline-1,3-dione]: below 100 nM and 34 nM.
The like results for `COc1cc(N2CCC(CN3CCC4(CCCN(c5ccc6c(c5)C(=O)N(C5CCC(=O)NC5=O)C6=O)C4)CC3)CC2)c(-c2cnn(C)c2)cc1Nc1ncc(Cl)c(Nc2ccc3nccnc3c2P(C)(C)=O)n1` (stereo not drawn) [Compound 10, 5-(9-((1-(4-((5-chloro-4-((5-(dimethylphosphoryl)quinoxalin-6-yl)amino)pyrimidin-2-yl)amino)-5-methoxy-2-(1-methyl-1H-pyrazol-4-yl)phenyl)piperidin-4-yl)methyl)-2,9-diazaspiro[5.5]undecan-2-yl)-2-(2,6-dioxopiperidin-3-yl)isoindoline-1,3-dione] were, in that order, below 100 nM and 13 nM.
Take `COc1cc(N2CCC(N3CCC4(CCCN(c5ccc6c(c5)C(=O)N(C5CCC(=O)NC5=O)C6=O)C4)CC3)CC2)c(-c2cnn(C)c2)cc1Nc1ncc(Cl)c(Nc2ccc3nccnc3c2P(C)(C)=O)n1` (stereo not drawn) [Compound 11, 5-(9-(1-(4-((5-chloro-4-((5-(dimethylphosphoryl)quinoxalin-6-yl)amino)pyrimidin-2-yl)amino)-5-methoxy-2-(1-methyl-1H-pyrazol-4-yl)phenyl)piperidin-4-yl)-2,9-diazaspiro[5.5]undecan-2-yl)-2-(2,6-dioxopiperidin-3-yl)isoindoline-1,3-dione]: the IC50 by setting is: (read-out: IC50 (class symbol)) below 100 nM; under setting [1], 7 nM.
Take `COc1cc(N2CCC(N3CCC(N4CCC5(CCCN(c6ccc7c(c6)C(=O)N(C6CCC(=O)NC6=O)C7=O)C5)CC4)CC3)CC2)c(-c2cnn(C)c2)cc1Nc1ncc(Cl)c(Nc2ccc3nccnc3c2P(C)(C)=O)n1` (stereo not drawn) [Compound 15, 5-(9-(1′-(4-((5-chloro-4-((5-(dimethylphosphoryl)quinoxalin-6-yl)amino)pyrimidin-2-yl)amino)-5-methoxy-2-(1-methyl-1H-pyrazol-4-yl)phenyl)-[1,4′-bipiperidin]-4-yl)-2,9-diazaspiro[5.5]undecan-2-yl)-2-(2,6-dioxopiperidin-3-yl)isoindoline-1,3-dione]: the IC50 by setting is: (read-out: IC50 (class symbol)) below 100 nM; under setting [1], 66 nM.
